Laboratory results as given in patent US20250339569A1, “CARBONIC ANHYDRASE IX LIGANDS” (priority 2021, published 2025).
Like-named read-outs stand apart in the source and are kept apart here. Starred links: 1 amine or outer side, 2 acyl side, 3 side chain; linkers in the order of their positions; H or OH if unused. Positions of bridges follow the written chain, without caps; N, C: chain ends. Non-standard residues stand in square brackets, D forms with d. Residues, ends and D or L forms follow the SMILES beside them. *: point of attachment. NH(CH2)3NHDOTA = O=C(O)CN1CCN(CC(=O)O)CCN(CC(=O)NCCCN*)CCN(CC(=O)O)CC1; DOTA = O=C(O)CN1CCN(CC(=O)O)CCN(CC(=O)*)CCN(CC(=O)O)CC1; mXylylene = c1cc(C[*:1])cc(C[*:2])c1; dOrn(Me2) = CN(C)CCC[C@@H](N)C(=O)O; Orn(Me2) = CN(C)CCC[C@H](N)C(=O)O; Trx = NC[C@H]1CC[C@H](C(=O)O)CC1; X2 = O=C(CN1CCC(N[*:1])CC1)[*:2]; hSer = N[C@@H](CCO)C(=O)O; Ac5c = NC1(C(=O)O)CCCC1; AEEA = NCCOCCOCC(=O)O; Sar = CNCC(=O)O

Columns and labels:
[1] = target: T1, CAIX-expressing human HT-29 colorectal cancer cells (Homo sapiens, UniProt Q16790); test: FACS binding assay (IC50 determination, competition with tracer 3BP-2776 or 3BP-4149); conditions: 4° C., 1 hour, read-out: pIC50 category (activity) (converted)
T1 construct: CAIX-expressing human HT-29 colorectal cancer cells; host or cells: HT-29 human colorectal cancer cells
In short: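 HT-29 cells in FACS buffer (PBS, 1% FCS) at 500.000 cells/ml were exposed to compounds competing with a labelled tracer, with biotinylated compounds detected by 1 μg/mL APC-streptavidin for 30 min on ice. APC/Cy5 median fluorescence was read by flow cytometry and IC50 derived by 4PL fit.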

[2] = target: T2, human carbonic anhydrase IX (hCAIX-Fc) (Homo sapiens, UniProt Q16790); test: Surface plasmon resonance assay with hCAIX-Fc; format: binding; conditions: 25° C.; for t1/2 category (activity): SPR dissociation half-life, hCAIX-Fc; for Kd: SPR, hCAIX-Fc captured, read-out: pKD category (activity) (converted)
T2 construct: purchased SinoBliological (Sino Biological) 10107-H02H
Procedure: Surface plasmon resonance (SPR) studies were performed using a Biacore™ T200 SPR system (GE Healthcare Life Sciences). Briefly, polarized light is directed towards a gold-labeled sensor surface, and minimum intensity reflected light is detected. The angle of reflected light changes as molecules bind and dissociate.
Fc-fusion protein of human carbonic anhydrase IX (hCAIX-Fc, SinoBliological, Cat #10107-H02H) was captured on a Fc-capture chip (Biacore™ CM5 sensor chip coated with ˜300 RU of an Fc-binding peptide). Recombinant carbonic anydrase was diluted in Running Buffer (PBST, 0.1% DMSO) to a final concentration 100 or 200 nM and than flushed over the Fc-capture chip to immobilized ˜1000 RUs.
Stock solutions of test compounds were prepared by dissolving each compound in DMSO. DMSO stock solution were diluted 1:1000 in Running Buffer without DMSO. Further sequencial dilutions were made with Running Buffer containing 0.1% DMSO. SPR binding analyses were performed in Single Cycle Kinetic (SCK) mode at 25° C. Flow cell coated with the Fc-binding peptide only served as reference flowcell. After each SCK run, carbonic andydrase IX was removed with 10 mM glycine buffer, pH 1.5.
In between every three SCK measurements, a blank run with Running Buffer instead of test compound was included to correct for baseline drifts (double blanking methods).
Table 11 describes the protocol steps for Fc-fusion target capturing and assessment of the binding kinetics.
For each test compound, SPR raw data in the form of resonance units (RU) were plotted as sensorgrams using the Biacore™ T200 control software. The signal from the blank sensorgram was subtracted from that of the test compound sensorgram (blank corrected). The blank corrected sensorgram was corrected for baseline drift by subtracting the sensorgram of a SCK run without the test compound (running buffer only). The association rate (kon), dissociation rate (koff), dissociation constant (KD), and t1/2 were calculated from Blank-normalized SPR data using the 1:1 Langmuir binding model from the Biacore™ T200 evaluation software. Raw data and fit results were imported as text files in IDBS. The pKD value (negative decadic logarithm of dissociation constant) was calculated in the IDBS excel template.

[3] = FACS competition on HT-29 cells, Tracer ID 3BP-2776 (10 nM, biotin-labeled)
[4] = FACS binding assay, HT-29 cells, competition with tracer 3BP-2776 (10 nM, biotin-labeled)

SMILES: CC(=O)N[C@H](C(=O)N[C@@H](Cc1ccc(O)cc1)C(=O)N[C@H]1CSCc2cccc(c2)CSC[C@@H](C(N)=O)NC(=O)[C@H](C)NC(=O)[C@H](Cc2c[nH]c3ccccc23)NC(=O)[C@H]([C@@H](C)O)NC(=O)[C@H](CC(C)C)NC(=O)[C@H](Cc2c[nH]c3ccccc23)NC(=O)[C@H](CC(=O)O)NC(=O)CN(C)C(=O)[C@H](CCC(=O)O)NC1=O)C(C)C [3BP-3313] (Ac-VYCE[Sar]DWLTWAC-NH2; linker 3-12 via mXylylene)
- IC50 [1, 3]: < 10 nM
- t1/2 category (activity) [2]: C (t1/2 between 2.1 and 5.0 minutes)
- Kd [2]: < 10 nM

SMILES: CC(=O)N[C@H](C(=O)N[C@@H](Cc1ccc(O)cc1)C(=O)N[C@H]1CSCc2cccc(c2)CSC[C@@H](C(N)=O)NC(=O)[C@H](CO)NC(=O)[C@H](Cc2c[nH]c3ccccc23)NC(=O)[C@H]([C@@H](C)O)NC(=O)[C@H](CC(C)C)NC(=O)[C@H](Cc2c[nH]c3ccccc23)NC(=O)[C@H](CC(=O)O)NC(=O)[C@H]2CCCN2C(=O)[C@H](CCC(=O)O)NC1=O)C(C)C [3BP-3565] (Ac-VYCE[dP]DWLTWSC-NH2; linker 3-12 via mXylylene)
- IC50 [1, 3]: < 10 nM
- t1/2 category (activity) [2]: A (t1/2>15.0 minutes)
- Kd [2]: < 10 nM

SMILES: CC(C)[C@H](NC(=O)CN1CCC(NC(=O)CN2CCN(CC(=O)O)CCN(CC(=O)O)CCN(CC(=O)O)CC2)CC1)C(=O)N[C@@H](Cc1ccc(O)cc1)C(=O)N[C@H]1CSCc2cccc(c2)CSC[C@@H](C(N)=O)NC(=O)[C@H](CO)NC(=O)[C@H](Cc2c[nH]c3ccccc23)NC(=O)[C@H]([C@@H](C)O)NC(=O)C2(CCCC2)NC(=O)[C@H](Cc2c[nH]c3ccccc23)NC(=O)[C@H](CC(=O)O)NC(=O)[C@H]2CCCN2C(=O)[C@H](CCC(=O)O)NC1=O [3BP-3587] ({DOTA}-[X2]VYCE[dP]DW[Ac5c]TWSC-NH2; linker 4-13 via mXylylene)
- IC50 [1, 3]: < 10 nM
- t1/2 category (activity) [2]: C (t1/2 between 2.1 and 5.0 minutes)
- Kd [2]: < 10 nM

SMILES: CC(C)C[C@@H]1NC(=O)[C@H](Cc2c[nH]c3ccccc23)NC(=O)[C@H](CC(=O)O)NC(=O)[C@H]2CCCN2C(=O)[C@H](CCC(=O)O)NC(=O)[C@@H](NC(=O)CN2CCC(NC(=O)CN3CCN(CC(=O)O)CCN(CC(=O)O)CCN(CC(=O)O)CC3)CC2)CSCc2cccc(c2)CSC[C@@H](C(N)=O)NC(=O)[C@H](CO)NC(=O)[C@H](Cc2c[nH]c3ccccc23)NC(=O)[C@H]([C@@H](C)O)NC1=O [3BP-3858] ({DOTA}-[X2]CE[dP]DWLTWSC-NH2; linker 2-11 via mXylylene)
- IC50 [1, 3]: < 10 nM
- t1/2 category (activity) [2]: D (t1/2≤2.0 minutes)
- Kd [2]: < 10 nM

SMILES: CC(C)C[C@@H]1NC(=O)[C@H](Cc2c[nH]c3ccccc23)NC(=O)[C@H](CC(=O)O)NC(=O)[C@H]2CCCN2C(=O)[C@H](CCC(=O)O)NC(=O)[C@@H](NC(=O)[C@H](Cc2ccc(O)cc2)NC(=O)CN2CCC(NC(=O)CN3CCN(CC(=O)O)CCN(CC(=O)O)CCN(CC(=O)O)CC3)CC2)CSCc2cccc(c2)CSC[C@@H](C(N)=O)NC(=O)[C@H](CO)NC(=O)[C@H](Cc2c[nH]c3ccccc23)NC(=O)[C@H]([C@@H](C)O)NC1=O [3BP-3867] ({DOTA}-[X2]YCE[dP]DWLTWSC-NH2; linker 3-12 via mXylylene)
- IC50 [1, 3]: < 10 nM
- t1/2 category (activity) [2]: C (t1/2 between 2.1 and 5.0 minutes)
- Kd [2]: < 10 nM

SMILES: CC(C)C[C@@H]1NC(=O)[C@H](Cc2c[nH]c3ccccc23)NC(=O)[C@H](CC(=O)O)NC(=O)[C@H]2CCCN2C(=O)[C@H](CCC(=O)O)NC(=O)[C@@H](NC(=O)[C@H](Cc2ccc(O)cc2)NC(=O)[C@H]2CC[C@H](CNC(=O)CN3CCN(CC(=O)O)CCN(CC(=O)O)CCN(CC(=O)O)CC3)CC2)CSCc2cccc(c2)CSC[C@@H](C(N)=O)NC(=O)[C@H](CO)NC(=O)[C@H](Cc2c[nH]c3ccccc23)NC(=O)[C@H]([C@@H](C)O)NC1=O [3BP-3868] ({DOTA-Trx}-YCE[dP]DWLTWSC-NH2; linker 2-11 via mXylylene)
- IC50 [1, 3]: < 10 nM
- t1/2 category (activity) [2]: B (t1/2 between 5.1 and 15.0 minutes)
- Kd [2]: < 10 nM

SMILES: CC(C)C[C@@H]1NC(=O)[C@H](Cc2c[nH]c3ccccc23)NC(=O)[C@H](CC(=O)O)NC(=O)[C@H]2CCCN2C(=O)[C@H](CCC(=O)O)NC(=O)[C@@H](NC(=O)[C@H](Cc2ccc(O)cc2)NC(=O)COCCOCCNC(=O)CN2CCN(CC(=O)O)CCN(CC(=O)O)CCN(CC(=O)O)CC2)CSCc2cccc(c2)CSC[C@@H](C(N)=O)NC(=O)[C@H](CO)NC(=O)[C@H](Cc2c[nH]c3ccccc23)NC(=O)[C@H]([C@@H](C)O)NC1=O [3BP-3869] ({DOTA-AEEA}-YCE[dP]DWLTWSC-NH2; linker 2-11 via mXylylene)
- IC50 [1, 3]: < 10 nM
- t1/2 category (activity) [2]: C (t1/2 between 2.1 and 5.0 minutes)
- Kd [2]: 10 to 79.4 nM

SMILES: CC(=O)N[C@@H](CO)C(=O)N[C@@H](Cc1ccc(O)cc1)C(=O)N[C@H]1CSCc2cccc(c2)CSC[C@@H](C(N)=O)NC(=O)[C@H](CCC(=O)NCCCNC(=O)CN2CCN(CC(=O)O)CCN(CC(=O)O)CCN(CC(=O)O)CC2)NC(=O)[C@H](Cc2c[nH]c3ccccc23)NC(=O)[C@H]([C@@H](C)O)NC(=O)[C@H](CC(C)C)NC(=O)[C@H](Cc2c[nH]c3ccccc23)NC(=O)[C@H](CC(=O)O)NC(=O)[C@H]2CCCN2C(=O)[C@H](CCC(=O)O)NC1=O [3BP-3873] (Ac-SYCE[dP]DWLTWE(NH(CH2)3NHDOTA)C-NH2; linker 3-12 via mXylylene)
- IC50 [1, 3]: < 10 nM
- t1/2 category (activity) [2]: B (t1/2 between 5.1 and 15.0 minutes)
- Kd [2]: < 10 nM

SMILES: CC(C)C[C@@H]1NC(=O)[C@H](Cc2c[nH]c3ccccc23)NC(=O)[C@H](CC(=O)O)NC(=O)[C@H]2CCCN2C(=O)[C@H](CCC(=O)O)NC(=O)[C@@H](NC(=O)[C@H](CCCN(C)C)NC(=O)[C@@H](NC(=O)CN2CCC(NC(=O)CN3CCN(CC(=O)O)CCN(CC(=O)O)CCN(CC(=O)O)CC3)CC2)C(C)C)CSCc2cccc(c2)CSC[C@@H](C(N)=O)NC(=O)[C@H](CO)NC(=O)[C@H](Cc2c[nH]c3ccccc23)NC(=O)[C@H]([C@@H](C)O)NC1=O [3BP-4095] ({DOTA}-[X2]V[Orn(Me2)]CE[dP]DWLTWSC-NH2; linker 4-13 via mXylylene)
- IC50 [1, 4]: < 10 nM
- t1/2 category (activity) [2]: B (t1/2 between 5.1 and 15.0 minutes)
- Kd [2]: < 10 nM

SMILES: CC(C)C[C@@H]1NC(=O)[C@H](Cc2c[nH]c3ccccc23)NC(=O)[C@H](CC(=O)O)NC(=O)[C@@H](CCCN(C)C)NC(=O)[C@H](CCC(=O)O)NC(=O)[C@@H](NC(=O)[C@H](Cc2ccc(O)cc2)NC(=O)[C@@H](NC(=O)CN2CCC(NC(=O)CN3CCN(CC(=O)O)CCN(CC(=O)O)CCN(CC(=O)O)CC3)CC2)C(C)C)CSCc2cccc(c2)CSC[C@@H](C(N)=O)NC(=O)[C@H](CO)NC(=O)[C@H](Cc2c[nH]c3ccccc23)NC(=O)[C@H]([C@@H](C)O)NC1=O [3BP-4097] ({DOTA}-[X2]VYCE[dOrn(Me2)]DWLTWSC-NH2; linker 4-13 via mXylylene)
- IC50 [1, 4]: < 10 nM
- Kd [2]: < 10 nM

SMILES: CC(C)C[C@@H]1NC(=O)[C@H](Cc2c[nH]c3ccccc23)NC(=O)[C@H](CCO)NC(=O)[C@H]2CCCN2C(=O)[C@H](CCC(=O)O)NC(=O)[C@@H](NC(=O)[C@H](Cc2ccc(O)cc2)NC(=O)[C@@H](NC(=O)CN2CCC(NC(=O)CN3CCN(CC(=O)O)CCN(CC(=O)O)CCN(CC(=O)O)CC3)CC2)C(C)C)CSCc2cccc(c2)CSC[C@@H](C(N)=O)NC(=O)[C@H](CO)NC(=O)[C@H](Cc2c[nH]c3ccccc23)NC(=O)[C@H]([C@@H](C)O)NC1=O [3BP-4102] ({DOTA}-[X2]VYCE[dP][hSer]WLTWSC-NH2; linker 4-13 via mXylylene)
- IC50 [1, 4]: < 10 nM
- t1/2 category (activity) [2]: A (t1/2>15.0 minutes)
- Kd [2]: < 10 nM
